# Test results: US7994321B2, “Substituted thieno[3,2-C]pyridine-7-carboxylic acid derivatives” (Hoffmann-La Roche Inc., priority 2006, dated 2011)
# Target: T1, Human recombinant EE-tagged PDGFRβ (Homo sapiens, UniProt P09619)
# T1 construct: made in house; host or cells: Sf9 cells
# Test: PDGFRβ IMAP Kinase Assay (fluorescence polarization)
# Assay type: biochemical
# Conditions: Kinase Enzyme Inhibition Assay; IMAP FP; FITC-labeled peptide substrate, ATP; 60 minutes at room temperature
# Source text: The assay uses IMAP Fluorescence polarization (FP) assay platform based on the high affinity binding of phosphate by immobilized metal coordination complexes. The substrate used in this assay is a Fitc labeled peptide: FITC-ALTSNQEYLDLSMPL. Upon substrate peptide's phosphorylation, the IMAP binding reagent complexes with phosphate groups on phosphopeptides generated in the PDGFRβ reaction, which causes a change in the rate of the molecular motion of the peptide, and results in an increase in the FP values.
# • Enzyme: Human recombinant EE-tagged PDGFRβ, expressed in Sf9 cells (stock concentration 74.5 μM, from Protein Biochemistry, RDT); store at −80° C. • Substrate: Synthesized Fitc labeled peptide: FITC-ALTSNQEYLDLSMPL; store at −20° C. • Positive Control Staurosporine (1 mM stock in DMSO, Calbiochem) • Robotic System Workstation: Tomtec Quadra • Reader: Acquest 384.1356 (Molecular Devices); FP reading method • Assay Plate: BD Falcon 30-μL 384 assay plate (Cat # 353972), and Costar 384 black plate (Cat # 3710) Assay Procedures: (1) Prepare Assay Buffer-MOPS Buffer: 20 mM MOPS (Teknova) pH 7.1, 5 mM sodium acetate, 6.25 mM MgCl2, 0.5 mM EDTA, 1 mM DTT, 0.04 mM NaVO4, 0.02% BSA. (2) Prepare Substrate Mix containing peptide (1 μM) and ATP (48.6 μM) in assay buffer. Add 8 μL of Substrate Mix in BD Falcon assay plates. (3) Prepare PDGFRβ (0.2 μM) in assay buffer. (4) Dilute compounds and positive control in DMSO (40 fold, 4-pt in series). Add 18 μL/well of assay buffer into 384 polypropylene compound plates containing 2 μL of compound solution in each well, mix and transfer 4 μl/well of diluted solution into the BD Falcon assay plates containing 8 μL of Substrate Mix (step 2) in each well. Then add 4 μl/well of PDGFRβ solution (step 3) in all wells except blank wells. Add 4 μl/well of assay buffer into blank wells. (5) Incubate at room temperature for 60 minutes. (6) Prepare 1:400 IMAP bead mix following the instruction given in the IMAP Bead Binding System Kit (Molecular Devices), and add 30 μl/well of IMAP bead mix in Costar 384 black plates. (7) Transfer 2 μl/well of reaction solution (step 4-5) into Costar 384 black plates containing 30 μl/well of bead mix (step 6). (8) Incubate at RT for 2 hours. (9) Read FP values at 485 nm and 530 nm on Acquest.
# Kinase Enzyme Inhibition Assay (IC50)
# T1 sequence (P09619 33-1106): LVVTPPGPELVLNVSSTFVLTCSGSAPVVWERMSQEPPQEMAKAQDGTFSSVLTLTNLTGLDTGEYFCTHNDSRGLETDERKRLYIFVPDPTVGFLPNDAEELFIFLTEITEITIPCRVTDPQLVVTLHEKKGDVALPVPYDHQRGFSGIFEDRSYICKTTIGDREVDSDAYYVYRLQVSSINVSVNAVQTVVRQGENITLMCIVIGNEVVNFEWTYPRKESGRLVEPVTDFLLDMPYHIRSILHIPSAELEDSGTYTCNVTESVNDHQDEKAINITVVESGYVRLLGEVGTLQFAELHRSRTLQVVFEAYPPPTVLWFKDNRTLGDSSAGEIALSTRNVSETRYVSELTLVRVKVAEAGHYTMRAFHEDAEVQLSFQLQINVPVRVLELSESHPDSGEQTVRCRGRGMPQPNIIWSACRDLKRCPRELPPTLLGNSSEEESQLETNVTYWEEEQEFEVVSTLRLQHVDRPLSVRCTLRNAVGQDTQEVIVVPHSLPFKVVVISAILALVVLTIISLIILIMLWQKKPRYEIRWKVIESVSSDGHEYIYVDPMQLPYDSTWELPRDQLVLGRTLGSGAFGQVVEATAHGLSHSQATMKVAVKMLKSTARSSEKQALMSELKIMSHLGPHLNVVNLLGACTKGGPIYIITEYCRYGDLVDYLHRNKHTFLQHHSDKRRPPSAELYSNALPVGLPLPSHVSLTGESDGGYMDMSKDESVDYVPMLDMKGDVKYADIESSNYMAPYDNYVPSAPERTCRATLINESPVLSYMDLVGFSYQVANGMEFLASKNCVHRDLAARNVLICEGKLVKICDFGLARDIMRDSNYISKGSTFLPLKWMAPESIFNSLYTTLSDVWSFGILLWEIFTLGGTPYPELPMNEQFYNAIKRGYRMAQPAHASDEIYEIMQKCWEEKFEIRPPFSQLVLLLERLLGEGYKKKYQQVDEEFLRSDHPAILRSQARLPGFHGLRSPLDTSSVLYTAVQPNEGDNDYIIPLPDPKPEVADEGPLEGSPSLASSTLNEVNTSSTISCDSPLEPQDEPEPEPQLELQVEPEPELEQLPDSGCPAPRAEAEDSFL
row,SMILES,IC50 [nM]
1,"O=C(Nc1cccc(OCc2csc3c(C(=O)NCCO)cncc23)c1)c1ccccc1 [Example 7, 3-(3-Benzoylamino-phenoxymethyl)-thieno[3,2-c]pyridine-7-carboxylic acid (2-hydroxy-ethyl)-amide]",990
2,"CCOC(=O)c1cncc2c(COc3cccc(NC(=O)c4cccc(OC)c4)c3)csc12 [Example 13, 3-[3-(3-Methoxy-benzoylamino)-phenoxymethyl]-thieno[3,2-c]pyridine-7-carboxylic acid ethyl ester]",440
3,"COc1cccc(C(=O)Nc2ccc(C)c(OCc3csc4c(C(=O)NCCO)cncc34)c2)c1 [Example 31, 3-[5-(3-Methoxy-benzoylamino)-2-methyl-phenoxymethyl]-thieno[3,2-c]pyridine-7-carboxylic acid (2-hydroxy-ethyl)-amide]",< 20000

# More lines, in order of falling IC50, values ahead:
row,IC50 [nM],SMILES
1,340,"CCOC(=O)c1cncc2c(COc3cccc(NC(=O)c4ccc(F)cc4)c3)csc12 [Example 8, 3-[3-(4-Fluoro-benzoylamino)-phenoxymethyl]-thieno[3,2-c]pyridine-7-carboxylic acid ethyl ester]"
2,113,"O=C(Nc1cccc(OCc2csc3c(C(=O)NCCO)cncc23)c1)c1cccc(Cl)c1 [Example 16, 3-[3-(3-Chloro-benzoylamino)-phenoxymethyl]-thieno[3,2-c]pyridine-7-carboxylic acid (2-hydroxy-ethyl)-amide]"
